Source: PubChem BioAssay (NCI)
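96-well plates; 48 h exposure; 5 concentrations. Endpoints by linear interpolation between flanking doses. Not reached: highest tested concentration assigned. At the TGI there is no net growth.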

Legend:
Experiment in all cases: NCI anticancer screen, dose series, 48 h
[1] = test system: KM12 colon
[2] = test system: NCI-H522 lung
[3] = test system: MALME-3M melanoma
[4] = test system: SK-MEL-5 melanoma
[5] = test system: HOP-92 NSCLC
[6] = test system: TK-10 renal
[7] = test system: OVCAR-4 ovarian
[8] = test system: SK-MEL-2 melanoma
[9] = test system: BT-549 breast
[10] = test system: UO-31 renal
[11] = test system: COLO 205 colon
[12] = test system: SNB-19 CNS
[13] = test system: OVCAR-3 ovarian
[14] = test system: DU-145 prostate
[15] = test system: SN12C renal
[16] = test system: 786-0 renal
[17] = test system: HCT-15 colon
[18] = test system: EKVX NSCLC
[19] = test system: A549 NSCLC
[20] = test system: UACC-257 melanoma
[21] = test system: MCF7 breast
[22] = test system: OVCAR-5 ovarian
[23] = test system: PC-3 prostate
[24] = test system: MDA-N
[25] = test system: NCI-H226 lung
[26] = test system: NCI-H460 lung
[27] = test system: SK-OV-3 ovarian
[28] = test system: HCT-116 colon
[29] = test system: MDA-MB-435
[30] = test system: M14 melanoma
[31] = test system: A498 renal
[32] = test system: MDA-MB-231 breast
[33] = test system: HCC-2998 colon
[34] = test system: SW-620 colon
[35] = test system: HT29 colon
[36] = test system: HOP-62 NSCLC
[37] = test system: K-562 leukemia
[38] = test system: SNB-75 CNS
[39] = test system: CCRF-CEM leukemia
[40] = test system: NCI/ADR-RES ovarian
[41] = test system: LOX IMVI melanoma
[42] = test system: RXF 393 renal
[43] = test system: RPMI-8226 leukemia
[44] = test system: ACHN renal
[45] = test system: CAKI-1 renal
[46] = test system: NCI-H23 lung
[47] = test system: MOLT-4 leukemia
[48] = test system: U251 CNS
[49] = test system: SF-295 CNS
[50] = test system: SK-MEL-28 melanoma
[51] = test system: OVCAR-8 ovarian
[52] = test system: UACC-62 melanoma
[53] = test system: IGROV1 ovarian

Work on COc1cc2cc(C(=O)N3CC(CCl)c4c3cc(NC(=O)C(C)Nc3c([N+](=O)[O-])cc(C(=O)NCCN(C)C)cc3[N+](=O)[O-])c3ccccc43)[nH]c2c(OC)c1OC (configuration not stated) yielded a TGI [1] of 0.457 µM, a TGI [2] of 0.279 µM and a TGI [3] of 0.27 µM. It also gave a TGI [4] of 0.232 µM, a TGI [5] of 0.0297 µM and a TGI [6] of 1.44 µM. It also gave a TGI [7] of 0.551 µM, a TGI [8] of 0.159 µM and a TGI [9] of 0.649 µM. For the same compound, the TGI [10] was 3.35 µM, the TGI [11] was 0.192 µM and the TGI [12] was 0.909 µM. For the same compound, the TGI [13] was 0.433 µM, the TGI [14] was 1.03 µM and the TGI [15] was 0.643 µM. For the same compound, the TGI [16] was 0.235 µM, the TGI [17] was 2.5 µM and the TGI [18] was 1.01 µM. It also gave a TGI [19] of 0.362 µM, a TGI [20] of 0.359 µM and a TGI [21] of 0.127 µM. It also gave a TGI [22] of 0.544 µM, a TGI [23] of 1.16 µM and a TGI [24] of 0.371 µM. It also gave a TGI [25] of 0.34 µM, a TGI [26] of 0.178 µM and a TGI [27] of 2.23 µM. It also gave a TGI [28] of 0.572 µM, a TGI [29] of 0.356 µM and a TGI [30] of 0.374 µM. For the same compound, the TGI [31] was 0.992 µM, the TGI [32] was 0.342 µM and the TGI [33] was 0.16 µM. For the same compound, the TGI [34] was 0.285 µM, the TGI [35] was 0.419 µM and the TGI [36] was 0.283 µM.

For CC1(C)C(=O)C=CC2(C)C1CC(O)C1(C)C2CCC2(C)C(c3ccoc3)OC(=O)C3OC321 (configuration not stated), the TGI [1] was 28.7 µM, the TGI [2] was 27.1 µM and the TGI [37] was > 100 µM. For the same compound, the TGI [4] was 21.8 µM, the TGI [38] was 39.5 µM and the TGI [5] was 38.5 µM. It also gave a TGI [6] of 37.5 µM, a TGI [39] of 57.5 µM and a TGI [40] of 30.5 µM. It also gave a TGI [7] of 38.4 µM, a TGI [8] of 35.1 µM and a TGI [9] of 41.1 µM. For the same compound, the TGI [10] was 25.8 µM, the TGI [41] was 38.9 µM and the TGI [11] was 50.3 µM. For the same compound, the TGI [12] was 44.3 µM, the TGI [42] was 33.6 µM and the TGI [13] was 36 µM. The TGI [14] was 51.4 µM, the TGI [43] was 47.9 µM and the TGI [15] was 37.4 µM. It also gave a TGI [16] of 28.3 µM, a TGI [17] of 23.6 µM and a TGI [18] of 33.2 µM. For the same compound, the TGI [19] was 69.8 µM, the TGI [21] was > 100 µM and the TGI [44] was 30.3 µM. For the same compound, the TGI [22] was > 100 µM, the TGI [23] was > 100 µM and the TGI [24] was 41.8 µM. The TGI [45] was 31.4 µM, the TGI [46] was 28.6 µM and the TGI [47] was 27.2 µM. For the same compound, the TGI [25] was 33.3 µM, the TGI [26] was 27.6 µM and the TGI [27] was > 100 µM. For the same compound, the TGI [28] was 31.7 µM, the TGI [29] was 72.7 µM and the TGI [48] was 40.5 µM. It also gave a TGI [49] of 53.1 µM, a TGI [50] of 70.3 µM and a TGI [51] of 26.8 µM. For the same compound, the TGI [30] was > 100 µM, the TGI [31] was 28.8 µM and the TGI [52] was 26.9 µM. The TGI [32] was 36.7 µM, the TGI [33] was 26.2 µM and the TGI [34] was 59.9 µM. It also gave a TGI [35] of 33.7 µM, a TGI [53] of 33.9 µM and a TGI [36] of 85.7 µM.
